According to patent US20160074400A1, “WNT MODULATORS FOR THE PROTECTION, MITIGATION AND TREATMENT OF RADIATION INJURY” (University of Southern California, priority 2012, published 2016):

Tests used:
[1] = system: murine intestinal crypts; assay: Small intestinal crypt organoid culture ex vivo, replacement of Rspo1; type: cell-based; details: FIG. 5
Description: Small intestinal crypt organoid culture was performed using murine intestinal crypts essentially as described by Ootani et al (Nature Medicine; online publication doi:10.1038/nm.1951, 27 Apr. 2009)), and see also Sato et al (Nature Letters doi:10.1038/nature07935, 2009), both incorporated by reference herein in their entireties.

[2] = system: C57BL/6 mice exposed to whole body irradiation (RIGS); assay: Survival (Kaplan-Meier) of mice after lethal whole body irradiation; type: in vivo; details: 10.4 Gy WBI; AdRspo1 5×10^9 particles/mice 1 hr and 48 hr post-IR, then ICG-001 150 mg/kg 72 hr post-IR; p<0.003
Description: C57BL/6 mice were treated with recombinant adenovirus expressing human Rspo1, AdRspo1 (5×10^9 particles/mice, 1 hr and 48 hr post-IR), followed by ICG-001 (150 mg/kg of body weight, 72 hr post-IR) after whole body irradiation (WBI) of 9.4-10.4 Gy. […] Expression of mRNA levels of β-Catenin target genes in crypt cells was determined by qRT-PCR.
To examine whether the purified recombinant hRspo1 could mitigate RIGS when administered along with ICG001, we treated C57BL/6 mice after 10.4 Gy of WBI with the combination of recombinant hRspo1+ICG-001. Specifically, C57BL/6 mice (n=10), exposed to 10.4 Gy single fraction WBI, were treated with hRspo1 (20 mg/kg of body weight s.c.) at 24 hr and 48 hr post-WBI. A separate cohort received sequential treatment of hRspo1 (24 hr and 48 hr post WBI) followed by ICG-001 (150 mg/kg of body weight, 72 hr post-IR).

[3] = system: asymmetric divisions in mitotic cells of the ventricular zone; assay: In vivo Par3 distribution assay of asymmetric versus symmetric divisions; design: species or system mice; details: for number of asymmetric divisions: topical or oral administration to pregnant mice, compared to vehicle control
Excerpt: For example, Bultje et al. (Bultje R Neuron 63, 189-202, 2009) describe an assay to measure asymmetric distributions in the ventricular zone (vz) to evaluate asymmetric divisions during neurogenesis. Essentially this involves treating the animal (either adult or in utero) for a set period of time with compounds (either p.o., s.c., i.v. or topically) with compounds and then sacrificing the animal and examining the Par3 distribution (e.g., via immunohistochemistry) in mitotic cells vs. DNA distribution (e.g., using DAPI staining) Par3 distributes equally among the two daughter cells during symmetric division and unequally (essentially all in one daughter cell) during asymmetric differentiation.

[4] = system: Wnt pathway in 293T cells; assay: TopFlash luciferase β-catenin activation test; type: cell-based; details: 24 hours in 1% FCS, alone and with Wnt3A, versus commercial Rspo1 from R&D biosystems
Description: The recombinant cDNA used was SEQ ID NO:11, encoding for recombinant human Rspo1 (SEQ ID NO:12, with StrepII tag). Activity of the purified recombinant Rspo1 was assayed using a β-catenin activation test.
Briefly, 293T cells were transfected with the reporter vector TopFlash, along with TK Renilla (transfection control) using lipofectamine 2000. After the transfection mixture was removed, cells were incubated in 0.1% FCS o/n, and then stimulated with the different inducers at the indicated concentrations in 1% FCS for 24 hours (FIG. 11).

[5] = system: mouse intestinal organoids; assay: Intestinal organoid growth/maintenance assay; type: cell-based
Description: The recombinant human Rspo1 was also tested in an intestinal organoid growth/maintenance test. Self-renewal of the small intestinal and colonic epithelium is driven by the proliferation of stem cells and their progenitors; and their maintenance and growth in culture (ex-vivo) requires the activation of the Wnt pathway. Given that it is essential, only functional Rspo1 will be able to maintain the growth of intestinal organoids and lead to their maintenance and proliferation. FIGS. 12A and 12B show, according to particular exemplary aspects, testing of functionality of recombinant human Rspo1 in an intestinal organoid growth/maintenance assay.
Organoids were generated by culturing purified small intestinal crypts in matrigel in Advanced DMEM/F12 supplemented with 500 ng/ml R-spondin 1 [commercial (FIG. 12A) or recombinant (FIG. 12B)], 100 ng/ml EGF and 100 ng/ml Noggin.

Cc1c[nH]c(-c2cnc(NCCNc3ccc(C#N)cn3)nc2-c2ccc(Cl)cc2Cl)n1 [CHIR]
replacement of Rspo1 for maintenance of small intestinal crypt organoid cultures [1]: can be used to replace (for at least up to 4 days) Rspo1

O=C1[C@H](Cc2ccc(O)cc2)N2C(=O)CCN(C(=O)NCc3ccccc3)[C@H]2CN1Cc1cccc2ccccc12 [ICG-001]
mice rescued from radiation lethality [2]: 60%
number of asymmetric divisions [3]: does not affect the number of asymmetric divisions
effect on the defect in asymmetric divisions caused by IQ-1 ([3]; treatment with excess ICG-001): corrects the defect in asymmetric divisions caused by IQ-1

CC(=O)c1ccc(N=NC(C(N)=O)=C2NC(C)(C)Cc3ccccc32)cc1 [IQ-1, reference compound]
number of symmetric divisions ([3]; pregnant mice): increases the number of symmetric divisions
number of asymmetric divisions [3]: decreases the number of asymmetric divisions

[Cl-].[Li+] [LiCl]
replacement of Rspo1 for maintenance of small intestinal crypt organoid cultures [1]: can be used to replace (for at least up to 4 days) Rspo1

O=c1cc(-c2ccccc2)oc2ccc3ccccc3c12 [beta napthoflavone]
replacement of Rspo1 for maintenance of small intestinal crypt organoid cultures [1]: can be used to replace (for at least up to 4 days) Rspo1

B1: recombinant human Rspo1: purified recombinant human R-spondin1, SEQ ID NO:12, with StrepII tag at the c-terminal end (protein)
chain: MRLGLCVVALVLSWTHLTISSRGIKGKRQRRISAEGSQACAKGCELCSEVNGCLKCSPKLFILLERNDIRQVGVCLPSCPPGYFDARNPDMNKCIKCKIEHCEACFSHNFCTKCKEGLYLHKGRCYPACPEGSSAANGTMECSSPAQCEMSEWSPWGPCSKKQQLCGFRRGSEERTRRVLHAPVGDHAACSDTKETRRCTVRRVPCPEGQKRRKGGQGRRENANRNLARKESKEAGAGSRRRKGQQQQQQQGTVGPLTSAGPAESAWSHPQFEK
modifications: C-terminal StrepII tag; human Rspo1 protein variant with SrepII tag (ESAWSHPQFEK) at c-terminus
activation of β-catenin (TopFlash luciferase) [4]: capable of activating β-catenin by itself and synergizing with Wnt (e.g., Wnt3A) as well as, if not better, than the commercially obtained Rspo1
ability to maintain and induce sprouting (proliferation) of the organoids, versus commercial protein ([5]; 500 ng/ml R-spondin 1): identical to the commercial protein
maintenance of growth and proliferation of intestinal organoids ([5]; 500 ng/ml R-spondin 1, 100 ng/ml EGF, 100 ng/ml Noggin, matrigel): capable of maintaining the growth and proliferation of mouse intestinal organoids in culture
